Experimental data reported in patent US6528685B2 (Teva Pharmaceutical Industries, Ltd., priority 1994, dated 2003).

Columns and labels:
[1] = Neurotoxicity in rats, positional sense test and gait stance test; settings: rat, in vivo, po
Procedure: (§1) Neurotoxicity of the claimed agents was also assessed in mice (i.p. administration) by the rotorod ataxia test and/or in rats (p.o. administration) by positional sense test and gait stance test. […] The term quantitating the neurotoxicity is the medial neurological toxic dose (TD50), was determined in the above tests.

[2] = in vivo; settings: mouse, in vivo, ip
Procedure: as §1

[3] = test system: rats; test: Maximal electroshock (MES) model, rats; settings: Rattus norvegicus, po, read-out: RATS MES 50
[4] = test system: mice; test: Maximal electroshock (MES) model, mice; settings: Mus musculus, ip, read-out: MICE MES ED50
[5] = test system: hypoxic rat; test: α-MpT-induced hypokinesia in hypoxic rat, Experiment 1A; assay type: in vivo; settings: hypoxia group, ten hour observation
Procedure: Wistar male rats, 15-19 month-old, were exposed to a single hypoxic episode which is assumed to decrease the level of dopamine in the brain. […] The drugs were administered by gavage, using a special syringe equipped with rounded tip that could be directed into the stomach. The dose was contained in 0.3-0.5 mL of distilled water. The rats were pretreated for 70-80 days with daily doses of the test drugs and received intra-peritoneal (i.p.) α-MpT (α-methyl-p-tyrosine) at a dose of 100 mg/kg in 0.3-0.5 mL saline. Controls received saline. α-MpT is assumed to inhibit the formation of L-Dopa from tyrosine and, consequently the formation of dopamine itself. Lack of central dopamine is expressed as hypokinesia. Following the injection of α-MpT, motor activity was recorded for the duration of 10 hours. Locomotion scores were taken in seven fully-computerized cages (26×25 cm) having a grid of infra-red beams at 4 cm-intervals.
Crossing of a beam initiated an electric signal which was fed into a computer. The number of crossings over a given period provided a measure of locomotion.
The records gave two data categories: (a) “small movements” originating in stationary activities such as grooming and scratching and (b) “big movements” originating in ambulation and recorded as the simultaneous crossing of more than two beams. “Total movements” include both categories.
Counts of motor activity in the presence of α-MpT were related as percent with respect to counts in its absence in the corresponding control group (unlesioned or hypoxia-lesioned). Motor activity counts of drug-treated rats were related to the hypoxia saline-treated as 100%. All behavioral tests were performed 90-120 min. after administration of the last dose of the test compound.

[6] = test system: hypoxic rat; test: Amphetamine-induced stereotype behavior in hypoxic rat, Experiment 2A; assay type: in vivo; settings: hypoxic group, with respect to hypoxia and amphetamine control
Procedure: (§2) Wistar male rats, 15-19 month-old, were exposed to a single hypoxic episode as described above. […] Rats pretreated for 29 days with daily doses of the test drugs (0.5 mg/kg), received a sub-cutaneous (s.c.) injection of D-amphetamine sulfate at a dose of 0.5 mg/kg. D-amphetamine is known to cause an enhancement of the effects of CNS dopamine by a mechanism involving dopamine release, and blockage of its uptake and its metabolism by MAO. The behavioral manifestation of amphetamine action is a stereotypic pattern of lateral head movements. Counts of lateral head movements were taken over two successive intervals of 1 min each, 45-60 min after the injection of amphetamine and then averaged.

[7] = test system: hypoxic rat; test: Amphetamine-induced stereotype behavior in hypoxic rat, Experiment 2B; assay type: in vivo
Procedure: as §2
The procedure of the second Experiment 2B was similar to the one used in Experiment 2A with the following changes:
1) Animals: 12 month-old rats.
The drugs were given by i.p. injection.
3) Duration of the treatment: 14 days.

[8] = test system: hypoxic rat; test: Passive avoidance test in hypoxic rat, Experiment 3A; assay type: in vivo; settings: hypoxic rats
Procedure: Wistar male rats, 15-19 month-old, were exposed to a single hypoxic episode as described above. […] The passive avoidance test was performed on day 13 after initiation the drug treatment. The apparatus consisted of a lit chamber that can be separated from a dark chamber by a sliding door. At training, a rat is placed in the lit chamber for 30 seconds, then the door is opened. The rat moves to the dark chamber after a short delay—the latency, that is recorded. Upon entry into the dark chamber, the door is shut closed and a 0.3-mA footshock is delivered for 3 seconds by a Grass S-88 stimulator. Retention of the experience is determined after 48 hours by repeating the test and recording the latency to an arbitrary maximum of 300 seconds. Longer latencies are ascribed to retention of memory and improved cognition.

[9] = test system: hypoxia-lesioned rats; test: Water maze working memory test, Experiment 3B; assay type: in vivo, rat; settings: rat, in vivo
Description: The apparatus used consists of a circular water tank 160 cm in diameter filled with water to a depth of 38 cm. The water was made cloudy by the addition of milk powder. A clear Plexiglass 15 cm platform, supported by a movable stand rest on the bottom of the tank was submerged to a depth of 2 cm from the water surface. Normally a swimming rat cannot perceive the location of the platform but it may recall it from a previous experience and training, unless it suffers from some memory impairment. The time taken to locate the platform is measured in seconds and referred to as the latency. During the experiment all orientational cues such as ceiling lights etc. remained unchanged. Longer latencies are observed with rats with some impairment to their memory.
Each rat was given two trails a day for four days, entering the pool from the same point of entry each day. The position of the platform was changed daily to one of four predetermined positions. Each rat was tested twice each day over the four days, referred to as runs 1 and 2 on sessions I-IV. Initially the rat was placed on the platform for 60 seconds. It was then removed and placed at the point of entry and allowed a maximum of 120 seconds to locate the platform (run 1). The second run for that day followed 60 seconds later (run 2). In the second run the rat is expected to find the platform much sooner, having benefitted from its earlier experience. […] The average latency of run 1 in four sessions on four different days was then related to the corresponding parameter of run 2. The smaller the ratio of […], the better the short range learning score.
Table 8. […] The data are the latencies in seconds±SEM that it took a given group to locate a submerged and invisible platform the location of which was shifted from one session to the other. The time interval between sessions was one day, and that between successive runs was 60 seconds. (n=7-8 rats per group)

[10] = test system: rats; test: Closed head injury in rats, Experiment 4C (dose range); assay type: in vivo, rat; settings: doses 0.03 mg/kg to 3 mg/kg
Procedure: (§3) After the second evaluation of motor function, the animals were sacrificed and the brains were removed. A piece of tissue was weighed to yield a wet weight (WW), then dried in an oven for 24 hours at 95 C. and re-weighed to yield a dry weight(DW). Percentage water content in the tissue was calculated as (WW-DW)×100/WW.

[11] = test system: rats; test: Closed head injury in rats, Experiment 4D (times of administration); assay type: in vivo, rat; settings: RAI 1 mg/kg; times of administration: 0, 4, 8, 12 h
Procedure: as §3

[12] = test system: rats; test: Closed head injury in rats, Experiment 4E (therapeutic window); assay type: in vivo, rat; settings: 1 mg/kg
Procedure: as §3

[13] = molecular target: T1, MAO-A (Rattus norvegicus, UniProt P21396); settings: chronic or acute treatment
T1 sequence (P21396 1-526): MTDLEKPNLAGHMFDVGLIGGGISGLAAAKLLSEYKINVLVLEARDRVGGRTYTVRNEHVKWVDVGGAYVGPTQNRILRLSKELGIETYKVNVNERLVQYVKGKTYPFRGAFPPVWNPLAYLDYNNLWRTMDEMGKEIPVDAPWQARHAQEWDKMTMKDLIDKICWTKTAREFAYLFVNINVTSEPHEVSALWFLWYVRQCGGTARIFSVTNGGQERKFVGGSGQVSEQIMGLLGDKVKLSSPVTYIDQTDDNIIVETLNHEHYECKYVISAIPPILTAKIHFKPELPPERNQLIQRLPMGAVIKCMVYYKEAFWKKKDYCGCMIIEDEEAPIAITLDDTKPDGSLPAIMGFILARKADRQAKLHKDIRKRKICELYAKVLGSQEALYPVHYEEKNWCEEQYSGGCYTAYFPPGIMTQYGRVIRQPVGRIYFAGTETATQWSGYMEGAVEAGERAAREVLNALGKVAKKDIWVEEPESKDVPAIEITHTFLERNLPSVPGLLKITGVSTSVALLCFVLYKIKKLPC
Description: (§4) The brains of some rats from each experimental group in Exp. 1 (chronic treatment of 80 days) and Exp. 2 (acute treatment of 14 days) were ex vivo analyzed for MAO-A and MAO-B activity.

[14] = molecular target: T2, MAO-B (Rattus norvegicus, UniProt P19643); settings: RAI: only chronic treatment; deprenyl: acute or chronic treatment
T2 sequence (P19643 1-520): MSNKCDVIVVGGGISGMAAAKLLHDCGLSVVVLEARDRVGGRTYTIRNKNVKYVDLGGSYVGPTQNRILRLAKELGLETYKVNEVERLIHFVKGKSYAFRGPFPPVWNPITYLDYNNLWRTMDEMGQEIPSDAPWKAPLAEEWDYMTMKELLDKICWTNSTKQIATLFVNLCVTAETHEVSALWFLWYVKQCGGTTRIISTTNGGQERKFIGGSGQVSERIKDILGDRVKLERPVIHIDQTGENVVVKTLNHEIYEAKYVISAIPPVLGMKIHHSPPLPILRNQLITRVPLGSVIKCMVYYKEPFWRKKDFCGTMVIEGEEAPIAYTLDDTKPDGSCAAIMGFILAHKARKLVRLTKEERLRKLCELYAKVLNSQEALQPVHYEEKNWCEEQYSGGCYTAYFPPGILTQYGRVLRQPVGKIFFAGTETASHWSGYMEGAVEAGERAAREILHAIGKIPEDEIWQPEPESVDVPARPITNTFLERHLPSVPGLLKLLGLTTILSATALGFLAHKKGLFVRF
Description: as §4

| Compound | TD50 [1] | TD50 [2] | melting point | ED50 [3] | ED50 [4] | effect on hypokinetic syndrome, big movements, in words [5] | potentiation of stereotypic behavior induced by amphetamine, in words [6] | potentiation of stereotypic behavior (lateral head movements), in words [7] | passive avoidance performance, in words [8] | water maze performance versus hypoxia group, in words [9] | dose at which a maximal response was observed [10] | % water in the brain [11] | effectiveness when given after induction of head trauma, in words [12] | effect on MAO-A activity, in words [13] | effect on MAO-B activity, in words [14] |
| --- | --- | --- | --- | --- | --- | --- | --- | --- | --- | --- | --- | --- | --- | --- | --- |
| CC(=O)NC1CCc2ccc(F)cc21 (racemic) [Compound 22, (rac)-6-Fluoro-N-acetyl-1-aminoindan] | > 50 mg/kg | > 100 mg/kg | 139 to 141 °C | < 50 mg/kg | < 100 mg/kg |  |  |  |  |  |  |  |  |  |  |
| N[C@@H]1CCc2ccccc21 [R-AI, (R)-1-aminoindan] |  |  |  |  |  | corrected the hypokinetic syndrome | significant potentiation | significant potentiation | improved their performance to control level | tended towards superior performance | 0.3 mg/kg | 81.5 ± 0.5% | still effective even if given 3 hours after the induction of head trauma | does not have an effect on MAO-A activity | can partially inhibit |
